Tests used:
galectin-3 [1] = target: T1, galectin-3 (Homo sapiens, UniProt P17931); assay: Fluorescence anisotropy assay, galectin-3; assay type: binding; conditions: MIC = inhibitor concentration bringing bound probe to 50%; Fig. 4
Experimental: FA was used to analyze interactions of probes and ligands with galectins in solution, as described before ([41][–][44]). A PheraStarFS plate reader, with software PHERAstar Mars version 2.10 R3 (BMG, Offenburg, Germany), was used, and FA of fluorescein-tagged saccharide probes was measured with excitation at 485 nm and emission at 520 nm.
The anisotropy (A) is given in units of mA, where the theoretical maximum is 400, and the value for free fluorescein typically 23. All conditions were measured in at least two duplicate wells.
In this study, the effect of inhibitors of the saccharide probe/galectin interaction was tested in two ways. In the first, a fixed low concentration of fluorescein-tagged probe (0.1 μM) and galectin were mixed with a range of concentrations of inhibitor. An optimal probe was chosen for each galectin to permit use of as low as possible concentration of galectin, while still achieving a sufficient rise in anisotropy for a reliable measuring range ([42][–][44]). […] With structurally defined inhibitors (pure synthetic galacto-oligosaccharides, small galactomannans, and reference ligands) the molecular mass, molar concentrations, and number of binding sites (in this case one binding site per ligand) were known and their dissociation constants (Kd) could therefore be directly calculated, using the data from the FA assay as described in Sörme et al. ([41]). […] Even if the molar concentration of the inhibitor is not known, the anisotropy value at a given condition permits calculation of the molar concentration of free galectin, as described below, and from this what fraction of the galectin is bound by a given mass per volume concentration of inhibitor. From this, the ratio of the molar concentration of the free inhibitor binding sites to their Kd value can be calculated, even if the FA assay cannot distinguish between the case when this is due to a few high affinity binding sites in the polysaccharide fraction or many of low affinity.

galectin-3 [2] = target: T1, galectin-3; assay: Galectin-3-induced hemagglutination of hen erythrocytes in V-shaped microplates; assay type: cell-based; conditions: for Estimated MIC, inhibition of galectin-3-induced hemagglutination, V-plate: MIC given as concentration interval
Experimental: Hemagglutination by galectin-3 was investigated in two assays, hemagglutination in V-shaped microplates (96 wells) and hemagglutination in gel cards described by Nowak et al. ([47]) and Lapierre et al. ([48]), respectively. Briefly, fresh hen blood in Alsever's solution was washed with 0.15 M NaCl, whereupon a 4% erythrocyte solution (by volume in PBS) was prepared and incubated with 1 mg/ml trypsin at 37 °C for 1 h. The cells were then washed with 0.15 M NaCl. The erythrocytes were diluted and preserved as a 10% solution in ID-CellStab solution. For the hemagglutination in V-shaped microplates, 1 volume of erythrocyte suspension in PBS (final concentration 0.6%), 1 volume of galectin solution, 1 volume of 0.15 M NaCl with or without the galectin inhibitor, and 1 volume of 1% bovine serum albumin (BSA) in 0.15 M NaCl were added to each well of the microplate. The plate was then shaken vigorously for 90 min at room temperature and then left standing still for at least 90 min before observing the hemagglutination status in each well. […] Each mixture was then transferred to individual gel card wells, whereupon the cards were centrifuged for 10 min at 85 × g in an ID-Centrifuge (DiaMed GmbH) and thereafter photographed and analyzed for hemagglutination.

[3] = test system: galectin-3 accumulation in JIMT-1 cells; assay: Inhibition of GPN-induced galectin-3 accumulation around disrupted lysosomes; assay type: cell-based, human; conditions: 1 or 10 μM for 24 h, then 0.3 mM GPN 12 min, positive control
Experimental: The cells were, after the GPN treatment, quickly washed with PBS and fixed with 3.7% formaldehyde for 15 min before blocking/permeabilization with 1% Tween® 20 and 1–5% BSA in PBS for at least 45 min. […] The cell nuclei were visualized by staining with the DNA-binding fluorescent agent bisbenzimide (Hoechst). The coverslips were finally mounted on glass slides using Mowiol® 4-88 and left at 8 °C overnight to solidify before examination. The samples were imaged with an LSM-510 confocal laser scanning microscope (Carl Zeiss Microscopy GmbH, Oberkochen, Germany) equipped with a Hamamatsu R6357 photomultiplier (Hamamatsu Photonics K.K., Hamamatsu, Japan).

T1 sequence (P17931 whole entry): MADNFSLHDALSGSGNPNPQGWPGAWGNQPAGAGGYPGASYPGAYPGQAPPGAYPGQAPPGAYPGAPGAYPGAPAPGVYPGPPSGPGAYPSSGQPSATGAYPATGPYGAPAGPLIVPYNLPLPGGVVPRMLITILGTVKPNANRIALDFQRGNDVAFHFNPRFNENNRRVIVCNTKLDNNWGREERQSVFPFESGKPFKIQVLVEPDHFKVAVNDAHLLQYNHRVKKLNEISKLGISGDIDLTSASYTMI

OC[C@H]1O[C@@H](S[C@@H]2O[C@H](CO)[C@H](O)[C@H](n3cc(-c4cccc(F)c4)nn3)[C@H]2O)[C@H](O)[C@@H](n2cc(-c3cccc(F)c3)nn2)[C@H]1O [33DFTG, 3,3′-Dideoxy-3,3′-bis-[4-(3-fluorophenyl)-1H-1,2,3-triazol-1-yl]-1,1′-sulfanediyl-di-β-D-galactopyranoside]
slope of MIC versus galectin-3 concentration, FA assay (galectin-3 [1]): around 1 | Estimated MIC, inhibition of galectin-3-induced hemagglutination, V-plate (galectin-3 [2]; 1 μM galectin-3): 0.25 to 0.74 µM | Estimated MIC, inhibition of galectin-3-induced hemagglutination, V-plate (galectin-3 [2]; 5 μM galectin-3): 2.22 to 6.67 µM | slope of MIC versus galectin-3 concentration, hemagglutination (galectin-3 [2]; V-shaped microtiter plates, Fig. 4): around 1 | inhibition of GPN-induced galectin-3 accumulation [3]: inhibit the galectin-3 accumulation

— paper PMC4933242, “Low or No Inhibitory Potency of the Canonical Galectin Carbohydrate-binding Site by Pectins and Galactomannans*” (The Journal of Biological Chemistry, 2016)
